Assay results taken from patent US6372943B1, “Polyenepolycarboxylic acids, derivatives thereof with respect to carboxyl groups, or salts of these” (Fujisawa Pharmaceutical Co., Ltd., priority 1998, dated 2002).
Blank lines part the entries; values can stand above or below the compound they belong to.

Tests used:
[1] = Dispersing activity, organic pigment in a non-aqueous system case 2, S0 anhydride in ethyl acetate (Example 15); details: supernatant 0.25 mL
Method: (§1) Into a test tube (16×150 mm) was scaled and collected 0.5 mL of a suspension of copper phthalocyanine blue in ethyl acetate (40 mg/10 mL) under stirring with a point mixer, and ethyl acetate (4.5 mL) was further added thereto.
(§2) To this suspension was added a solution of each of S1 and S2 anhydrides obtained in preparation example 1 in ethyl acetate (20 mg/2 mL), and ethyl acetate was further added thereto to give a total amount of 6 mL. This liquid was stirred with a point mixer for 15 seconds, treated with ultrasonic wave for 30 minutes, and then allowed to stand for 10 to 30 minutes. The resulting supernatant liquid (0.5 mL) was colle cted, admixed with ethyl acetate to give a total amount of 3 mL and then measured for absorbance at 660 wavelength. From the absorbance thus measured, the dispersibility was evaluated.
S0 anhydride obtained in preparation example 11 was treated in the same manner as in example 14. The resulting supernatant liquid (0.25 mL) was collected, admixed with ethyl acetate to give a total amount of 3 mL, and then measured for absorbance. From the absorbance thus measured, the dispersing activity was evaluated.

[2] = Detergent activity against artificially soiled cloth, Launder-o-meter (Example 19); details: additive 0.25 g/L in basic washing liquid; 20° C., 10 minutes; ratio to washing liquid with no addition
Method: A detergency test was conducted using a Launder-o-meter as a detergency tester by washing 15 pieces of artificially wet-soiled cloth (size: 5×5 cm, dirt composition: oleic acid 28.3%, triolein 15.6%, cholesterol oleate 12.2%, liquid paraffin 2.5%, squalene 2.5%, cholesterol 1.6%, gelatin 7.0%, soil matter 29.8% and carbon black 0.2-0.3%) available from SENTAKU KAGAKU KYOKAI (foundation) in a washing liquid (liquid temperature: 20° C.) of the composition shown in Table 25 for 10 minutes, followed by rinsing for three minutes.
Judgment was done in the following manner. The reflectivity of each of the 15 pieces of artificially soiled cloth was measured before and after the test by means of a spectrocolorizeter, and from the mean value of the measured values the detergency was calculated according to the formula of Kubelka and Munk. The ratio of the detergency calculated of a sample to the detergency of a washing liquid with no addition was found as a detergency ratio.

[3] = Dispersing activity, organic pigment in an aqueous system case 1, phthalocyanine green (Example 12); details: standing three hours
Method: Into a test tube (16×150 mm) were placed a phthalocyanine green suspension (5 mL: phthalocyanine green 16 mg/distilled water 200 mL) and the filtrate (evaporated to dryness) obtained in culture example 1 in a predetermined amount, followed by stirring for 15 seconds with a point mixer. After the stirring, the resulting mixture liquid was allowed to stand for three hours, and then the diameter of phthalocyanine green deposited on the bottom of the test tube was measured to evaluate the dispersibility from the diameter measured. That is, a greater diameter measured is indicative of better dispersibility. For comparison, the same procedure was taken with commercially available naphthalenesulfonate or lignin sulfonate.

[4] = Dispersing activity, organic pigment in a non-aqueous system case 1, ethyl acetate (Example 14)
Method: as §1, §2

[5] = Dispersing activity, organic pigment in a non-aqueous system case 3, ethanol (Example 16); details: supernatant 0.25 mL
Method: as §1, §2
The same procedure as in example 14 except for the use of ethanol instead of ethyl acetate was performed. The amount of a supernatant liquid was 0.25 mL. From the absorbance thus measured, the dispersing activity was evaluated.

[6] = Sequestering ability against calcium ion under alkaline condition (pH13) (Example 17); format: physicochemical
Method: First, a liquid for measurement was prepared in the following manner. Potassium oxalate (0.6 g) was dissolved in 0.1N sodium hydroxide (500 mL), and in the resulting solution (10 mL) was dissolved pentasodium salt of S1 compound (40) mg) or heptasodium salt of S2 compound (40 mg) to give the liquid for measurement. As a titrant was used 2.2% calcium acetate solution.
The titrant was added dropwise to this liquid for measurement under stirring until the liquid for measurement became turbid by precipitation of calcium oxalate to determine the titer used A (mL). Another liquid for measurement not containing any one of the test samples was also measured in the same manner as above to determine the titer of blank B (mL). Based on the titers A and B, the sequestering ability against calcium ion was calculated according to the following formula. For comparison, an existing chelating agent (EDTA·4Na) was treated in the same manner as above to calculate its sequestering ability against calcium ion.
Sequestering ability against calcium ion [Ca ion (mg)/test sample (1 g)]=(A−B)×(1 g/test sample amount precisely weighed)×5
wherein the numeral “5” is the amount of Ca ion (5 mg) equivalent to 1 mL of the 2.2% calcium acetate solution.

Compound: O=P(O)(O)OP(=O)(O)OP(=O)(O)O [Sodium tripolyphosphate]
- Detergency ratio [2]: 1.38

Compound: O=C([O-])CN(CCN(CC(=O)[O-])CC(=O)[O-])CC(=O)[O-].[Na+].[Na+].[Na+].[Na+] [EDTA · 4Na, EDTA·4Na]
- Sequestering ability against calcium ion, Ca ion [6]: 92 mg/1 g of a test sample

Compound: O=C([O-])CC(O)(CC(=O)[O-])C(=O)[O-].[Na+].[Na+].[Na+] [Trisodium citrate]
- Detergency ratio [2]: 1.38

More lines, now with the values ahead:

- Absorbance (660 nm) ([1]; amount added 0.5 mg): 0.84
- Absorbance (660 nm) ([1]; amount added 1.0 mg): 0.89
Compound: CC/C=C/C1=C(CCC(=O)O)C(=O)OC1=O [S0 anhydride]

- Diameter of phthalocyanine green deposited ([3]; 0.17 mg): 4 mm
- Diameter of phthalocyanine green deposited ([3]; 0.85 mg): 5 mm
- Diameter of phthalocyanine green deposited ([3]; 1.7 mg): 6 mm
- Diameter of phthalocyanine green deposited ([3]; 8.5 mg): 6 mm
- Diameter of phthalocyanine green deposited ([3]; 17 mg): 6 mm
Compound: naphthalenesulfonate

- Absorbance (660 nm) ([4]; amount added 2.5 mg): 0.66
- Absorbance (660 nm) ([4]; amount added 5 mg): 1.27
- Absorbance (660 nm) ([4]; amount added 10 mg): 1.86
- Absorbance (660 nm) ([5]; amount added 0.25 mg): 0.05
- Absorbance (660 nm) ([5]; amount added 0.50 mg): 0.69
- Absorbance (660 nm) ([5]; amount added 1.00 mg): 0.63
Compound: CC/C=C/C1=C(CC(CC)CC2=C(CCC(=O)O)C(=O)OC2=O)C(=O)OC1=O (stereo not shown) [S1 anhydride]
